From US9593149B2, “Amylin and calcitonin receptor agonist” (Novo Nordisk A/S, priority 2014, dated 2017)
pIC50: −log10 of the molar value. ≈ marks a conversion by molar mass, not a printed value. Numbered stars: 1 amine (or outer) side, 2 acyl side, 3 side chain; on linkers, the order of the positions; unused ones are H or OH. Side chains are listed from the residue outwards. Peptide text beside a SMILES is read from it. * marks the point of attachment. C20 diacid = O=C(O)CCCCCCCCCCCCCCCCCCC(=O)*; C16 diacid = O=C(O)CCCCCCCCCCCCCCC(=O)*; γGlu = O=C(O)[C@H](CCC(=O)[*:2])N[*:1]

Legend:
[1] = Assay (IV) determination of solubility; type: physicochemical
Experimental: Assay (IV)—Determination of Solubility
The mimylin peptide was dissolved in water at ˜500 nmol/ml and mixed 1:1 with a series of buffers (100 mM glycylglycine pH 3.0, 100 mM glycylglycine pH 4.0, 100 mM glycylglycine pH 5.0, 100 mM bistrispropane pH 6.0, 100 mM bistrispropane pH 6.5, 100 mM bistrispropane pH 7.0, 100 mM bistrispropane pH 7.5, 100 mM bistrispropane pH 8.0).

rat calcitonin receptor = target: T1, rat calcitonin receptor (Rattus norvegicus, UniProt P32214); assay: Assay (VIII) binding to the rat calcitonin receptor; conditions: membranes; read-out: rCT-R binding IC50
T1 construct: expressed in transfected cells; host or cells: BHK tk'ts 13 (transient, FuGENE 6)
T1 sequence (P32214 25-479 isoform P32214-2 limits assumed): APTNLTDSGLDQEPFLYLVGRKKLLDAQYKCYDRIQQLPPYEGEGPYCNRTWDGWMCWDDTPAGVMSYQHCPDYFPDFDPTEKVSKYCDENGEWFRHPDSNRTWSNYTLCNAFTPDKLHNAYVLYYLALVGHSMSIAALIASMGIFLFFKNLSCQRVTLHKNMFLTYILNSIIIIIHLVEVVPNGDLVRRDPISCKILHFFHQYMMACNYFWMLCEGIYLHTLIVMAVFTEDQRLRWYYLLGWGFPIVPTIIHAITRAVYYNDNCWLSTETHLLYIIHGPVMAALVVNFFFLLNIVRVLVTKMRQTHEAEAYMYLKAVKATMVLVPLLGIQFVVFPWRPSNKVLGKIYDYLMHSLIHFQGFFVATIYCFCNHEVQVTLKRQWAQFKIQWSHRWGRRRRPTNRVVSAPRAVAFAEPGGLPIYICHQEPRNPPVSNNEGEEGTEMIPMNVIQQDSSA
Method in brief: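 Affinity given as IC50 from a one-site competition fit of bound radioactivity, counted by scintillation after cold HBSS washes and NaOH/SDS lysis. Membranes came from BHK tk'ts 13 cells transiently expressing the rat receptor; other conditions followed the human calcitonin receptor protocol.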

| Compound | Solubility ([1]; pH 3.0) | Solubility ([1]; pH 4.0) | Solubility ([1]; pH 5.0) | Solubility ([1]; pH 6.0) | Solubility ([1]; pH 6.5) | Solubility ([1]; pH 7.0) | Solubility ([1]; pH 7.5) | Solubility ([1]; pH 8.0) | pIC50 (rat calcitonin receptor) | solubility at 18 h ([1]; pH 5.0) [µM] |
| --- | --- | --- | --- | --- | --- | --- | --- | --- | --- | --- |
| CC(C)C[C@H](NC(=O)[C@H](C)NC(=O)[C@H](C)NC(=O)[C@@H](NC(=O)[C@H](CO)NC(=O)[C@H](CC(C)C)NC(=O)[C@H](CCC(=O)O)NC(=O)[C@H](CO)NC(=O)[C@H](C)NC(=O)CC[C@H](NC(=O)CCCCCCCCCCCCCCCCCCC(=O)O)C(=O)O)[C@@H](C)O)C(=O)NCC(=O)N[C@@H](Cc1cnc[nH]1)C(=O)N[C@@H](CC(C)C)C(=O)N[C@@H](CO)C(=O)N[C@@H](C)C(=O)N[C@@H](CCC(=O)O)C(=O)N[C@@H](CC(C)C)C(=O)N[C@@H](Cc1cnc[nH]1)C(=O)N[C@@H](CCC(=O)O)C(=O)N[C@@H](CC(C)C)C(=O)N[C@@H](C)C(=O)N[C@H](C(=O)N[C@@H](CC(C)C)C(=O)N1CCC[C@H]1C(=O)N[C@@H](CCCNC(=N)N)C(=O)N[C@H](C(=O)N[C@@H](CCC(=O)O)C(=O)N[C@H](C(=O)NCC(=O)N[C@@H](CO)C(=O)NCC(=O)N[C@@H](CO)C(=O)N1CCC[C@H]1C(N)=O)[C@@H](C)O)[C@@H](C)O)[C@@H](C)O [compound 72, [N-terminal(C20 diacid-gGlu), des1, 12H, 30S, 31G]mimylin] ({C20 diacid-γGlu}-ASELSTAALGHLSAELHELATLPRTETGSGSP-NH2) | ≧200 μM | ≧200 μM | ≧200 μM | ≧200 μM | ≧200 μM | ≧200 μM | ≧200 μM | ≧200 μM | 10.07 | – |
| CC(=O)N[C@@H](C)C(=O)N[C@@H](CO)C(=O)N[C@@H](CCC(=O)O)C(=O)N[C@@H](CC(C)C)C(=O)N[C@@H](CO)C(=O)N[C@H](C(=O)N[C@@H](C)C(=O)N[C@@H](C)C(=O)N[C@@H](CC(C)C)C(=O)NCC(=O)N[C@@H](CCCNC(=N)N)C(=O)N[C@@H](CC(C)C)C(=O)N[C@@H](CO)C(=O)N[C@@H](C)C(=O)N[C@@H](CCC(=O)O)C(=O)N[C@@H](CC(C)C)C(=O)N[C@@H](Cc1cnc[nH]1)C(=O)N[C@@H](CCCCNC(=O)CC[C@H](NC(=O)CCCCCCCCCCCCCCCCCCC(=O)O)C(=O)O)C(=O)N[C@@H](CC(C)C)C(=O)N[C@@H](C)C(=O)N[C@H](C(=O)N[C@@H](CC(C)C)C(=O)N1CCC[C@H]1C(=O)N[C@@H](CCCNC(=N)N)C(=O)N[C@H](C(=O)N[C@@H](CCC(=O)O)C(=O)N[C@H](C(=O)NCC(=O)N[C@@H](CO)C(=O)NCC(=O)N[C@@H](CO)C(=O)N1CCC[C@H]1C(N)=O)[C@@H](C)O)[C@@H](C)O)[C@@H](C)O)[C@@H](C)O [compound 70, [N-terminal(acetyl), des1, 19K(C20 diacid-gGlu), 30S, 31G]mimylin] (Ac-ASELSTAALGRLSAELHK([γGlu-C20 diacid])LATLPRTETGSGSP-NH2) | ≧200 μM | ≧200 μM | ≧200 μM | ≧200 μM | ≧200 μM | ≧200 μM | ≧200 μM | ≧200 μM | 10.15 | – |
| CC(C)C[C@H](NC(=O)[C@H](CCCNC(=N)N)NC(=O)CNC(=O)[C@H](CC(C)C)NC(=O)[C@@H](NC(=O)[C@H](C)NC(=O)[C@@H](NC(=O)[C@H](CO)NC(=O)[C@H](CC(C)C)NC(=O)[C@H](CCC(=O)O)NC(=O)[C@H](CO)NC(=O)[C@H](C)NC(=O)CC[C@H](NC(=O)CCCCCCCCCCCCCCCCCCC(=O)O)C(=O)O)[C@@H](C)O)[C@@H](C)O)C(=O)N[C@@H](CO)C(=O)N[C@@H](C)C(=O)N[C@@H](CCC(=O)O)C(=O)N[C@@H](CC(C)C)C(=O)N[C@@H](Cc1cnc[nH]1)C(=O)N[C@@H](CCC(=O)O)C(=O)N[C@@H](CC(C)C)C(=O)N[C@@H](CO)C(=O)N[C@H](C(=O)N[C@@H](Cc1ccc(O)cc1)C(=O)N1CCC[C@H]1C(=O)N[C@@H](CCCNC(=N)N)C(=O)N[C@H](C(=O)N[C@@H](CCC(=O)O)C(=O)N[C@H](C(=O)NCC(=O)N[C@@H](CO)C(=O)NCC(=O)N[C@@H](CO)C(=O)N[C@@H](Cc1ccc(O)cc1)C(N)=O)[C@@H](C)O)[C@@H](C)O)[C@@H](C)O [compound 99, [N-terminal(C20 diacid-gGlu), des1, 9T, 21S, 23Y, 30S, 31G, 33Y]mimylin] ({C20 diacid-γGlu}-ASELSTATLGRLSAELHELSTYPRTETGSGSY-NH2) | ≧200 μM | ≧200 μM | – | ≧200 μM | ≧200 μM | ≧200 μM | ≧200 μM | ≧200 μM | 10.16 | 19 (≈ 72.9 µg/mL) |

Molecules with a higher pIC50 (rat calcitonin receptor), results first:

| Solubility ([1]; pH 3.0) | Solubility ([1]; pH 4.0) | Solubility ([1]; pH 5.0) | Solubility ([1]; pH 6.0) | Solubility ([1]; pH 6.5) | Solubility ([1]; pH 7.0) | Solubility ([1]; pH 7.5) | Solubility ([1]; pH 8.0) | pIC50 (rat calcitonin receptor) | solubility at 18 h ([1]; pH 5.0) [µM] | Compound |
| --- | --- | --- | --- | --- | --- | --- | --- | --- | --- | --- |
| ≧200 μM | ≧200 μM | ≧200 μM | ≧200 μM | ≧200 μM | ≧200 μM | ≧200 μM | ≧200 μM | 10.19 | – | CC(C)C[C@H](NC(=O)[C@H](C)NC(=O)[C@H](C)NC(=O)[C@@H](NC(=O)[C@H](CO)NC(=O)[C@H](CC(C)C)NC(=O)[C@H](CCC(=O)O)NC(=O)[C@H](CO)NC(=O)[C@H](C)N)[C@@H](C)O)C(=O)NCC(=O)N[C@@H](CCCNC(=N)N)C(=O)N[C@@H](CC(C)C)C(=O)N[C@@H](CO)C(=O)N[C@@H](C)C(=O)N[C@@H](CCCCNC(=O)CC[C@H](NC(=O)CCCCCCCCCCCCCCCCCCC(=O)O)C(=O)O)C(=O)N[C@@H](CC(C)C)C(=O)N[C@@H](Cc1cnc[nH]1)C(=O)N[C@@H](CCC(=O)O)C(=O)N[C@@H](CC(C)C)C(=O)N[C@@H](C)C(=O)N[C@H](C(=O)N[C@@H](CC(C)C)C(=O)N1CCC[C@H]1C(=O)N[C@@H](CCCNC(=N)N)C(=O)N[C@H](C(=O)N[C@@H](CCC(=O)O)C(=O)N[C@H](C(=O)NCC(=O)N[C@@H](CO)C(=O)NCC(=O)N[C@@H](CO)C(=O)N1CCC[C@H]1C(N)=O)[C@@H](C)O)[C@@H](C)O)[C@@H](C)O [compound 53, [des1, 16K(C20 diacid-gGlu), 30S, 31G]mimylin] (H-ASELSTAALGRLSAK([γGlu-C20 diacid])LHELATLPRTETGSGSP-NH2) |
| ≧200 μM | ≧200 μM | – | ≧200 μM | ≧200 μM | ≧200 μM | ≧200 μM | ≧200 μM | 10.92 | 7 (≈ 27.4 µg/mL) | CC(C)C[C@H](NC(=O)CNC(=O)[C@H](CO)NC(=O)[C@H](C)NC(=O)CC[C@H](NC(=O)CCCCCCCCCCCCCCCCCCC(=O)O)C(=O)O)C(=O)N[C@@H](CO)C(=O)N[C@H](C(=O)N[C@@H](C)C(=O)N[C@@H](C)C(=O)N[C@@H](CC(C)C)C(=O)NCC(=O)N[C@@H](CCCNC(=N)N)C(=O)N[C@@H](CC(C)C)C(=O)N[C@@H](CO)C(=O)N[C@@H](CCC(N)=O)C(=O)N[C@@H](CCC(=O)O)C(=O)N[C@@H](CC(C)C)C(=O)N[C@@H](Cc1cnc[nH]1)C(=O)N[C@@H](CCC(=O)O)C(=O)N[C@@H](CC(C)C)C(=O)N[C@@H](CCC(N)=O)C(=O)N[C@H](C(=O)N[C@@H](Cc1ccc(O)cc1)C(=O)N1CCC[C@H]1C(=O)N[C@@H](CCCNC(=N)N)C(=O)N[C@H](C(=O)N[C@@H](CCC(=O)O)C(=O)N[C@H](C(=O)NCC(=O)N[C@@H](CO)C(=O)N[C@@H](CCC(N)=O)C(=O)N[C@H](C(=O)N[C@@H](Cc1ccc(O)cc1)C(N)=O)[C@@H](C)O)[C@@H](C)O)[C@@H](C)O)[C@@H](C)O)[C@@H](C)O [compound 109, [N-terminal(C20 diacid-gGlu), des1, 4G, 15Q, 21Q, 23Y, 30S, 31Q, 32T, 33Y]mimylin] ({C20 diacid-γGlu}-ASGLSTAALGRLSQELHELQTYPRTETGSQTY-NH2) |
| ≧200 μM | ≧200 μM | ≧200 μM | ≧200 μM | ≧200 μM | ≧200 μM | ≧200 μM | ≧200 μM | 10.96 | – | CC(C)C[C@H](NC(=O)[C@H](C)NC(=O)[C@H](C)NC(=O)[C@@H](NC(=O)[C@H](CO)NC(=O)[C@H](CC(C)C)NC(=O)[C@H](CCC(=O)O)NC(=O)[C@H](CO)NC(=O)[C@H](C)NC(=O)CCCCCCCCCCCCCCC(=O)O)[C@@H](C)O)C(=O)NCC(=O)N[C@@H](CCCNC(=N)N)C(=O)N[C@@H](CC(C)C)C(=O)N[C@@H](CO)C(=O)N[C@@H](C)C(=O)N[C@@H](CCC(=O)O)C(=O)N[C@@H](CC(C)C)C(=O)N[C@@H](Cc1cnc[nH]1)C(=O)N[C@@H](CCC(=O)O)C(=O)N[C@@H](CC(C)C)C(=O)N[C@@H](C)C(=O)N[C@H](C(=O)N[C@@H](CC(C)C)C(=O)N1CCC[C@H]1C(=O)N[C@@H](CCCNC(=N)N)C(=O)N[C@H](C(=O)N[C@@H](CCC(=O)O)C(=O)N[C@H](C(=O)NCC(=O)N[C@@H](CO)C(=O)NCC(=O)N[C@@H](CO)C(=O)N1CCC[C@H]1C(N)=O)[C@@H](C)O)[C@@H](C)O)[C@@H](C)O [compound 49, [N-terminal(C16 diacid), des1, 30S, 31G]mimylin] ({C16 diacid}-ASELSTAALGRLSAELHELATLPRTETGSGSP-NH2) |
